The source made the active and inactive calls. No cut-off for these calls is given here.

This is an account of results in ChEMBL document CHEMBL5120922, “Discovery, Optimization, and Evaluation of Potent and Selective PI3Kδ-γ Dual Inhibitors for the Treatment of B-cell Malignancies” (J Med Chem, 2022).

The nature of series [1]: Toxicity in human SU-DHL-6 cells xenografted in NOD/SCID mouse at 10 mg/kg, po measured every 2 days in presence of ibrutinib. It is filed as organism-based. The following applies: in vivo, 48 h, time 2 day. For orientation: A xenograft is tissue or cells of one species grown in another, often human tumour cells in immunodeficient mice.
Series [2] has as its system SU-DHL-6. In words: Induction of apoptosis in human SU-DHL-6 cells assessed as early apoptotic cells at 1.5 uM incubated for 48 hrs in presence of ibrutinib by annexin V-FITC and PI staining based flow cytometry analysis (reference value: 8.81 %). The class given is functional. On the technique in general: Flow cytometry measures light scatter and fluorescence of single cells or particles in a stream.

Series [3] is described as follows: Half life in Sprague-Dawley rat at 5 mg/kg, iv measured upto 24 hrs by LC-MS/MS analysis. The class given is ADME, organism-based. As to conditions: in vivo.
The test system of series [4] is SU-DHL-6. The series can be described thus: Antitumor activity against human SU-DHL-6 cells xenografted in NOD/SCID mouse assessed as reduction in tumor weight at 10 mg/kg, po measured every 2 days in presence of ibrutinib. The class given is functional, organism-based. The following applies: time 2.0 day.
Series [5] is described as follows: Cmax in Sprague-Dawley rat at 5 mg/kg, po measured upto 24 hrs by LC-MS/MS analysis. It is filed as ADME, organism-based. On the set-up: dose 5 mg/kg, time < 24 hrs, route po. The following applies: in vivo.
Series [6] relates to SU-DHL-6. The series can be described thus: Induction of cell cycle arrest in human SU-DHL-6 cells assessed as accumulation of cells at S phase at 0.5 uM incubated for 24 hrs in presence of ibrutinib by PI staining based flow cytometry analysis (reference value: 24.18 %). It is filed as functional.
Series [7] relates to SU-DHL-6. In words: Induction of apoptosis in human SU-DHL-6 cells assessed as late apoptotic cells at 1.5 uM incubated for 48 hrs in presence of ibrutinib by annexin V-FITC and PI staining based flow cytometry analysis (reference value: 3.88 %). The class given is functional.
The nature of series [8]: Oral bioavailability in Sprague-Dawley rat at 5 mg/kg measured upto 24 hrs by LC-MS/MS analysis. The class given is ADME, organism-based. As to conditions: in vivo.
Series [9] in a line: Tmax in Sprague-Dawley rat at 5 mg/kg, po measured upto 24 hrs by LC-MS/MS analysis. It is filed as ADME, organism-based. The following applies: in vivo.
In a further series the test system is DOHH-2. The series can be described thus: Induction of apoptosis in human DOHH-2 cells assessed as late apoptotic cells at 2 uM incubated for 48 hrs by annexin V-FITC and PI staining based flow cytometry analysis (reference value: 2.20 %). The class given is functional.

Turning to `C[C@H]1CC[C@@H](c2nc3cccc(Cl)c3c(=O)n2-c2cccnc2)N1c1nc(N)nc(N)c1C#N`, the Activity result in series [1] is listed as “Non-Toxic”; with SU-DHL-6 [2], 34.5%; with SU-DHL-6 [6] it was 15.65%; in the series on SU-DHL-6 [7] it was 18.1%; with DOHH-2, 17.6%. In addition, in [3], the half-life (as a rule, how long it takes for the measured level to halve) was 2.79 h. Besides, the outcome with SU-DHL-6 [4] was Active. Besides, the Cmax (as a rule, the maximum level reached in the sampled fluid or tissue) in series [5] amounted to 3640 ng/mL. In addition, the bioavailability in series [8] worked out at 126%. The Tmax (in general, the time from dosing to the highest level) in [9] amounted to 3.33 h.
